Experiments:
corn (maze) plants [1] = test: Greenhouse foliar study in corn: Fe concentration by plasma emission spectrophotometry; format: in vivo; conditions: 400 ppm Fe foliar spray twice, harvest three weeks after last spray
Protocol: (§1) A greenhouse foliar study was conducted in which 12 inch corn (maze) plants were sprayed with a solution that contained 400 ppm Fe as FeSO4, Fe EDTA, or Fe high nitrogen amino acid chelate with and without the addition of urea and ammonium nitrate. The high nitrogen amino acids were lysine, histidine, cysteine, tryptophan, aspartic acid, alanine, and glycine. The urea and ammonium nitrate were formulated as an admixture and not reacted to the Fe sources. […] These same treatments were repeated one week later. Three weeks following the last spray, all of the plants were harvested and the roots separated from the stalks. Each sample was dried for 24 hours at 75° C., then weighed for dry matter, and the Fe concentrations determined by plasma emission spectrophotometry.

corn (maze) plants [2] = test: Greenhouse foliar study in corn: plant growth as dry matter; format: in vivo; conditions: 400 ppm Fe foliar spray twice
Protocol: as §1, with “spectrophotometry. […] Greater Fe retention also results in greater plant growth as measured by dry matter.” for “spectrophotometry.”

oranges = test: Orange orchard foliar zinc study: fruit production and quality; format: in vivo, orange trees; conditions: equivalent zinc
Protocol: A study was conducted in oranges in which the application of zinc nitrate was compared to a zinc mixed ligand amino acid chelate. The mixed ligands included arginine, lysine, histidine, leucine, tryptophan, aspartic acid, alanine, and glycine. Specifically, a 12 year old orchard containing 193 trees per acre was evaluated. The trees were divided into 2 groups. One group was sprayed with a zinc nitrate treatment, and the other group was sprayed with a zinc mixed ligand amino acid chelate treatment. The treatments were applied by a sprayer that sprays 535 gallons of liquid per acre.
Each tree was sprayed twice during the study, a first time at 90% petal drop and a second time 14 days later. The zinc nitrate was applied at 49 ounces per acre and the amino acid chelate at 66 ounces per acre. The amount of zinc applied to each group was equivalent.
Ten trees from each group were selected at random and the oranges picked from those trees by hand.

Golden Delicious apples [3] = test: Golden Delicious apple foliar calcium study: Ca analysis of leaves and fruit; format: in vivo, apple trees; conditions: 4 foliar applications, 14 day interval; for Apple Ca: apple fruit flesh; for Leaf Ca: apple leaves from fruiting spur
Protocol: A study was conducted with Golden Delicious apples. Calcium is effective in reducing bitterpit in apples, and the present study was initially designed to determine which source of calcium, described below, had the greatest impact on reducing bitterpit. As a secondary aspect of this study, the leaves and fruit were analyzed to see if the source of calcium could affect calcium retention in the plant tissues.
(§2) A block of mature apple trees was divided into 4 sections.
(§3) The amino acids in the calcium chelate were glycine, valine, leucine, tryptophan, isoleucine, lysine, aspartic acid, alanine, and arginine. All treatments were made on the same day. The applications began with the first cover spray and continued from there every 14 days for 4 applications. The leaves were collected from a fruiting spur located at a 45 degree angle from the spray rig and into the tree canopy 3 feet. Samples were collected and sent for analysis. Apples were also collected on the same day from the same location as the leaves. They also were sent for analysis of the fruit flesh. The orchard was then harvested and placed in storage.

Golden Delicious apples [4] = test: Golden Delicious apple foliar calcium study: bitterpit and culls; format: in vivo, apple trees; conditions: apples harvested and stored; 4 foliar applications, 14 day interval
Protocol: A study was conducted with Golden Delicious apples. […] As a secondary aspect of this study, the leaves and fruit were analyzed to see if the source of calcium could affect calcium retention in the plant tissues.
as §2, §3
It is noted that absorption of calcium into the plant from a foliar spray is only part of what the plant needs. The calcium source must be able to be retained by the plant after absorption and then be translocated and enter into metabolic activities as needed.

[5] = 0 ppm N from urea and ammonium nitrate
[6] = 500 ppm N from urea and ammonium nitrate
[7] = 1000 ppm N urea and ammonium nitrate

O=S(=O)([O-])[O-].[Fe+2] [FeSO4]
Fe in Leaves (corn (maze) plants [1]; [5]): 48 ppm^a Fe ppm Fe | Fe in Leaves (corn (maze) plants [1]; [6]): 53 ppm^a Fe ppm Fe | Fe in Leaves (corn (maze) plants [1]; [7]): 63 ppm^a Fe ppm Fe | Dry Matter (corn (maze) plants [2]; [5]): 13.23 g/pot | Dry Matter (corn (maze) plants [2]; [6]): 15.73 g/pot | Dry Matter (corn (maze) plants [2]; [7]): 14.82 g/pot

O=[N+]([O-])[O-].O=[N+]([O-])[O-].[Zn+2] [Zn Nitrate, zinc nitrate]
% Acid (oranges; oranges, sprayed twice): 1.05% | % Brix (oranges; oranges, sprayed twice): 12.2% | % Juice (oranges; oranges, sprayed twice): 57.2% | Weight of oranges/tree (oranges; sprayed twice (90% petal drop and 14 days later), ten trees per group): 95.11 lbs

O=[N+]([O-])[O-].O=[N+]([O-])[O-].[Ca+2] [Ca Nitrate, calcium nitrate]
Apple Ca (Golden Delicious apples [3]): 190 ppm | Leaf Ca (Golden Delicious apples [3]): 2.37% | percent of bitterpit in the culls (Golden Delicious apples [4]): 20% | percent of culls (Golden Delicious apples [4]): 34%

O=C([O-])CN(CCN(CC(=O)[O-])CC(=O)[O-])CC(=O)[O-].[Fe+3] [Fe EDTA]
Fe in Leaves (corn (maze) plants [1]; [5]): 47 ppm^a Fe ppm Fe | Fe in Leaves (corn (maze) plants [1]; [6]): 56 ppm^a Fe ppm Fe | Fe in Leaves (corn (maze) plants [1]; [7]): 69 ppm^a Fe ppm Fe | Dry Matter (corn (maze) plants [2]; [5]): 14.12 g/pot | Dry Matter (corn (maze) plants [2]; [6]): 15.08 g/pot | Dry Matter (corn (maze) plants [2]; [7]): 11.24 g/pot

[Ca+2].[Cl-].[Cl-] [Ca Chloride, calcium chloride]
Apple Ca (Golden Delicious apples [3]): 138 ppm | Leaf Ca (Golden Delicious apples [3]): 1.70% | percent of bitterpit in the culls (Golden Delicious apples [4]): 26% | percent of culls (Golden Delicious apples [4]): 36%

[O]=[Ca] [Ca Oxide, calcium oxide]
Apple Ca (Golden Delicious apples [3]): 148 ppm | Leaf Ca (Golden Delicious apples [3]): 2.15% | percent of bitterpit in the culls (Golden Delicious apples [4]): 25% | percent of culls (Golden Delicious apples [4]): 34%

— patent US20080194407A1, “High nitrogen containing chelate compositions suitable for plant delivery” (priority 2007, published 2008)
